From patent US9801922B2, “Compositions and methods of treating cancer” (UNIVERSITY OF IOWA RESEARCH FOUNDATION, priority 2011, dated 2017)

Tests used:
Sum159 xenograft tumors = assay: ALDH+ cells in Sum159 xenografts in vivo; set-up: species or system nude mice; conditions: 100 μM DTPP in drinking water 2 weeks; BSO 675 mg/kg i.p.; Au 2.7 mg/kg i.p.
Method: FIGS. 1A-D: BSO, DTPP and AUR treated SUM159, MDA-MB231 and HMEC Clonogenic survival. In Panel A (SUM 159), B (MDA-MB231) and C(HMEC), 150,000 cells/dish SUM159 or MDA-MB231 and 300,000 cells/dish were plated in 60 mm tissue culture dishes. After 48 hours, cells were given fresh complete HMECs media and treated with 100 μM BSO+/1 μM DTPP for 24 hours. 500 nM AUR were added 15 mins before the trypsinization of cells for clonogenic survival assay. In panel A-C, The error bars represent mean±1 SD of n=1 treatment dishes done in 3 separate experiments where each treatment dish was used to prepare 6-10 replicate cloning dishes for analysis. *p<0.001 as compared to Control. […] Mice growing Sum159 xenograft tumors were treated with 100 μM DTPP in drinking water for 2 weeks followed by i.p. injections of BSO 675 mg/kg followed in 2 hrs with Au 2.7 mg/kg. The day following injections tumors were harvested, digested and stained for ALDH positive cells. Each bar represents an average of at least three tumors. Error bars are SEM. *p<0.05 vs. control.
To address this question, SUM159 were treated with these drugs as described in FIG. 1, and aldehyde dehydrogenase (ALDH) activity, a marker of cancer stem cells was examined by ALDEFLUOR assay. […]

SUM159 cells = assay: Glutathione analysis (total GSH, GSSG); assay type: cell-based, human; conditions: for % GSSG: untreated 1.13%
Method: (§1) FIG. 18: Intracellular GSH&GSSG measured in BSO, DTPP, and AUR exposed SUM159 cells. Asynchronously growing cultures of SUM159 were plated and treated as described in FIG. 1. Cells were harvested and scraped in PBS at 4° C. Whole cell homogenates were used for biochemical analysis of total GSH & GSSG levels. Errors represent Mean ±1 SD of 4 samples from two separate experiments (n=4).
Glutathione analysis: SUM159 Cells were plated and treated with BSO, DTPP and AUR as described above. When cells were grown to 70-80% confluency on 100 mm dishes and scraped in PBS at 4° C., centrifuged, and the cell pellets were frozen at −20° C. until analysis. Samples were thawed and whole homogenates were prepared as described and total glutathione (GSH+GSSG) was determined using a recycling method (Spitz, D. R.; Malcolm, R. R.; Roberts, R. J. Cytotoxicity and metabolism of 4-hydroxy-2-nonenal and 2-nonenal in H2O2-resistant cell lines. Do aldehydic by-products of lipid peroxidation contribute to oxidative stress? Biochem J 267:453-459; 1990; Griffith, O. W. Determination of glutathione and glutathione disulfide using glutathione reductase and 2-vinylpyridine. Anal Biochem 106:207-212; 1980). All biochemical determinations were normalized to the protein content using the method of bicinchoninic acid protein assay.

[1] = test system: thioredoxin reductase (TRR); assay: Thioredoxin reductase activity assay in treated SUM159 cells; assay type: cell-based, human; conditions: for TRR activity: control 135
Method: as §1, with “8:” for “18:”, “thioredoxin reductase (TRR) activity” for “GSH&GSSG”, “thioredoxin reductase activity.” for “total GSH & GSSG levels.”, “Mean±1” for “Mean ±1”, “(n=4). *p<0.001 as compared to Control.” for “(n=4).”
Thioredoxin Reductase Assay: Thioredoxin Reductase activity was measured by using Thioredoxin Reductase Assay Kit purchased from Sigma (St Louis, Mo.). 400,000 cells/100 mm dishes of SUM159 cells were plated and treated with BSO, DTPP and AUR as described above. When cells were grown to 70-80% confluency on 100 mm dishes and scraped in PBS at 4° C., centrifuged, and the cell pellets were frozen at −20° C. until analysis. The assay was performed according to manufacturer's instructions. Briefly, working buffer containing 100 mM KPO4, pH 7.0, 10 mM EDTA, and 0.24 mM NADPH was prepared, and samples were added with working buffer along with 5,5′-dithiobis-(2-nitrobenzoic acid) (Eliman's reagent, DTNB). The rate of DTNB's reduction to 2-nitro-5-thiobenzoate (TNB) was then measured spectrophotometrically at […]. For each sample, this reaction was replicated, in tandem, with the sample in the presence of an inhibitor to thioredoxin reductase (TrxR), included with the kit. The difference between the sample rate with and without the TrxR inhibitor was taken to be the difference caused by TrxR activity in the sample. Each sample was then normalized to protein, by using the Lowry protein assay, as described previously (Lowry, O. H.; Rosebrough, N.J.; Farr, A. L.; Randall, R. J. Protein measurement with the Folin phenol reagent. J Biol Chem 193:265-275; 1951). The thioredoxin reductase activity of each sample was then normalized as a percentage of that of the control cells.

| Structure (SMILES) | effect on ALDH positive cells in xenografts, in words (Sum159 xenograft tumors) | effect on glutathione metabolism, in words (SUM159 cells) | TRR activity ([1]; 500 nM AUR 15 min) [mU/mg protein] | total GSH, in words (SUM159 cells; 24 hours) | % GSSG (SUM159 cells) [%] | effect on TRR activity, in words [1] | increase in GSSG and % GSSG compared to untreated cells (SUM159 cells) [fold] | GSSG (SUM159 cells; untreated 0.06) [nmole GSSG/mg protein] | increase of TRR activity [1] [fold] | TRR activity ([1]; 1 μM DTPP 24 h) [mU/mg] |
| --- | --- | --- | --- | --- | --- | --- | --- | --- | --- | --- |
| CC[PH](CC)(CC)[Au][S][C@@H]1O[C@H](COC(C)=O)[C@@H](OC(C)=O)[C@H](OC(C)=O)[C@H]1OC(C)=O [AUR, S-triethylphosphinegold(I)-2,3,4,6-tetra-O-acetyl-1-thio-β-D-glucopyranoside] | decrease of ALDH+cells | not capable of altering the glutathione metabolism | 10 |  |  |  |  |  |  |  |
| CCCCS(=N)(=O)CCC(N)C(=O)O [BSO, L-buthionine-[S,R]-sulfoximine, reference compound] | decrease of ALDH+cells |  |  | significant decreases in total GSH | 4.88 | not capable of altering the TRR activity |  |  |  |  |
| CCCCCCCCCC[P+](c1ccccc1)(c1ccccc1)c1ccccc1 [DTPP, Decyl-Triphenylphosphonium] |  |  |  |  | 3.65 |  | ~3 | 0.26 | 2 | 311 |
